Test results: patent publication US9005575B2, “Arg-Gly-Asp-conjugated alpha-melanocyte stimulating hormone hybrid peptide for use in diagnosing and treating melanoma, including metastatic melanoma and methods related to same” (STC.UNM, priority 2009, dated 2015)
“And” between values parts separate entries of the source, which are not always exact repeats. Identical values can stand only once. Positions of bridges follow the written chain, without caps; N, C: chain ends. Non-standard residues stand in square brackets, D forms with d. Residues, ends and D or L forms follow the SMILES beside them.

System: B16/F1 murine melanoma cells
Experiment: Cellular internalization and efflux
Format: cell-based
Set-up: concentration or dose not given beside the values
Conditions: for Cellular efflux: activity remained inside the cells: 2 h after incubating cells in culture medium; for Activity internalized in the B16/F1 cells: 25° C.
Experimental: Cellular internalization and efflux of ^99mTc-RGD-Lys-(Arg^11)CCMSH was evaluated in B16/F1 cells as previously described by Miao et al (27). After being washed once with binding media, B16/F1 cells in 24-well cell culture plates were incubated at 25° C. for 20, 40, 60, 90 and 120 min (n=4) in the presence of approximately 200,000 cpm of HPLC purified ^99mTc-RGD-Lys-(Arg^11)CCMSH. After incubation, the reaction media were aspirated and the cells were rinsed twice with 0.5 ml of ice-cold pH 7.4, 0.2% BSA/0.01 M PBS. Cellular internalization of ^99mTc-RGD-Lys-(Arg^11)CCMSH was assessed by washing the cells with acidic buffer [40 mM sodium acetate (pH 4.5) containing 0.9% NaCl and 0.2% BSA] to remove the membrane-bound radioactivity. The remaining internalized radioactivity was obtained by lysing the cells with 0.5 ml of 1 N NaOH for 5 min. Membrane-bound and internalized ^99mTc activities were counted in a gamma counter. Cellular efflux of ^99mTc-RGD-Lys-(Arg^11)CCMSH was determined by incubating B16/F1 cells with ^99mTc-RGD-Lys-(Arg^11)CCMSH for 2 h at 25° C., removing non-specific-bound radioactivity with 2×0.5 ml of ice-cold pH 7.4, 0.2% BSA/0.01 M PBS rinse, and monitoring radioactivity released into cell culture media. At time points of […], the radioactivities in media, on cell surface and in cells were separately collected and counted in a gamma counter.
Cellular internalization and efflux of ^99mTc-RGD-Arg-(Arg^11)CCMSH was evaluated in B16/F1 cells as previously described by Yang et al (17). After being washed once with binding medium, B16/F1 cells in 24-well cell culture plates were incubated at 25° C. for 20, 40, 60, 90 and 120 min (n=3) in the presence of approximately 200,000 cpm of HPLC purified 99″Tc-RGD-Arg-(Arg^11)CCMSH. After incubation, the reaction medium was aspirated and the cells were rinsed twice with 0.5 mL of ice-cold pH 7.4, 0.2% BSA/0.01 M PBS. Cellular internalization of ^99mTc-RGD-Arg-(Arg^11)CCMSH was assessed by washing the cells with acidic buffer [40 mM sodium acetate (pH 4.5) containing 0.9% NaCl and 0.2% BSA] to remove the membrane-bound radioactivity. The remaining internalized radioactivity was obtained by lysing the cells with 0.5 mL of 1 N NaOH for 5 min. Membrane-bound and internalized ^99mTc activities were counted in a gamma counter. Cellular efflux of ^99mTc-RGD-Arg-(Arg^11)CCMSH was determined by incubating B16/F1 cells with ^99mTc-RGD-Arg-(Arg^11)CCMSH for 2 h at 25° C., removing non-specific-bound radioactivity with 2×0.5 mL of ice-cold pH 7.4, 0.2% BSA/0.01 M PBS rinse, and monitoring radioactivity released into cell culture medium. At time points of 20, 40, 60, 90 and 120 min, the radioactivities on cell surface and in cells were separately collected and counted in a gamma counter.

With `CC(C)[C@H](NC(=O)[C@@H]1CCCN1C(=O)[C@H](CCCNC(=N)N)NC(=O)[C@H](CS)NC(=O)[C@H](Cc1c[nH]c2ccccc12)NC(=O)[C@H](CCCNC(=N)N)NC(=O)[C@@H](Cc1ccccc1)NC(=O)[C@H](Cc1c[nH]cn1)NC(=O)[C@H](CCC(=O)O)NC(=O)[C@H](CS)NC(=O)[C@H](CS)NC(=O)[C@H](CCCCN)NC(=O)[C@@H]1CC(=O)N[C@@H](CCCNC(=N)N)C(=O)NCC(=O)N[C@@H](CC(=O)O)C(=O)N[C@H](Cc2ccc(O)cc2)C(=O)N1)C(N)=O` [^99mTc-RGD-Lys-(Arg^11)CCMSH, metal not drawn] (RGD[dY]DKCCEH[dF]RWCRPV-NH2; lactam N-5) the “Cellular efflux: activity remained inside the cells” value was 68.57±3.77% and ~69% and the “Activity internalized in the B16/F1 cells” value (“Activity internalized” below) (2 h incubation) was 85.93±1.22%.

`CC(C)[C@H](NC(=O)[C@@H]1CCCN1C(=O)[C@H](CCCNC(=N)N)NC(=O)[C@H](CS)NC(=O)[C@H](Cc1c[nH]c2ccccc12)NC(=O)[C@H](CCCNC(=N)N)NC(=O)[C@@H](Cc1ccccc1)NC(=O)[C@H](Cc1c[nH]cn1)NC(=O)[C@H](CCC(=O)O)NC(=O)[C@H](CS)NC(=O)[C@H](CS)NC(=O)[C@H](CCCNC(=N)N)NC(=O)[C@@H]1CC(=O)N[C@@H](CCCNC(=N)N)C(=O)NCC(=O)N[C@@H](CC(=O)O)C(=O)N[C@H](Cc2ccc(O)cc2)C(=O)N1)C(N)=O` [^99mTc-RGD-Arg-(Arg^11)CCMSH, metal not drawn] (RGD[dY]DRCCEH[dF]RWCRPV-NH2; lactam N-5) was tested, and the “Activity internalized” value (20 min post incubation) was 62.35±4.08%, the “Cellular efflux: activity remained inside the cells” value was 58.99±2.03% and the “Activity internalized” value (2 h incubation) was 81.36±0.96%.
